Experiments:
Assay in all cases: radiometric filter-binding kinase assay, Kinase HotSpot
Conditions in all cases: compound 0.5 µM; ATP 10 µM
ROS1 (human) = ROS1 (human) (UniProt P08922)
CSNK1G1 (human) = CSNK1G1 (human) (UniProt Q9HCP0)
GRK7 (human) = GRK7 (human) (UniProt Q8WTQ7)
BRSK2 (human) = BRSK2 (human) (UniProt Q8IWQ3)
CDK5 CDK5R1 p25 (human) = CDK5 CDK5R1 p25 (human) (UniProt Q00535+Q15078)
TYRO3 (human) = TYRO3 (human) (UniProt Q06418)
EPHA1 (human) = EPHA1 (human) (UniProt P21709)
PTK2 (human) = PTK2 (human) (UniProt Q05397)
WNK2 (human) = WNK2 (human) (UniProt Q9Y3S1)
Chain of WNK2 (human) (Q9Y3S1 whole entry, looked up): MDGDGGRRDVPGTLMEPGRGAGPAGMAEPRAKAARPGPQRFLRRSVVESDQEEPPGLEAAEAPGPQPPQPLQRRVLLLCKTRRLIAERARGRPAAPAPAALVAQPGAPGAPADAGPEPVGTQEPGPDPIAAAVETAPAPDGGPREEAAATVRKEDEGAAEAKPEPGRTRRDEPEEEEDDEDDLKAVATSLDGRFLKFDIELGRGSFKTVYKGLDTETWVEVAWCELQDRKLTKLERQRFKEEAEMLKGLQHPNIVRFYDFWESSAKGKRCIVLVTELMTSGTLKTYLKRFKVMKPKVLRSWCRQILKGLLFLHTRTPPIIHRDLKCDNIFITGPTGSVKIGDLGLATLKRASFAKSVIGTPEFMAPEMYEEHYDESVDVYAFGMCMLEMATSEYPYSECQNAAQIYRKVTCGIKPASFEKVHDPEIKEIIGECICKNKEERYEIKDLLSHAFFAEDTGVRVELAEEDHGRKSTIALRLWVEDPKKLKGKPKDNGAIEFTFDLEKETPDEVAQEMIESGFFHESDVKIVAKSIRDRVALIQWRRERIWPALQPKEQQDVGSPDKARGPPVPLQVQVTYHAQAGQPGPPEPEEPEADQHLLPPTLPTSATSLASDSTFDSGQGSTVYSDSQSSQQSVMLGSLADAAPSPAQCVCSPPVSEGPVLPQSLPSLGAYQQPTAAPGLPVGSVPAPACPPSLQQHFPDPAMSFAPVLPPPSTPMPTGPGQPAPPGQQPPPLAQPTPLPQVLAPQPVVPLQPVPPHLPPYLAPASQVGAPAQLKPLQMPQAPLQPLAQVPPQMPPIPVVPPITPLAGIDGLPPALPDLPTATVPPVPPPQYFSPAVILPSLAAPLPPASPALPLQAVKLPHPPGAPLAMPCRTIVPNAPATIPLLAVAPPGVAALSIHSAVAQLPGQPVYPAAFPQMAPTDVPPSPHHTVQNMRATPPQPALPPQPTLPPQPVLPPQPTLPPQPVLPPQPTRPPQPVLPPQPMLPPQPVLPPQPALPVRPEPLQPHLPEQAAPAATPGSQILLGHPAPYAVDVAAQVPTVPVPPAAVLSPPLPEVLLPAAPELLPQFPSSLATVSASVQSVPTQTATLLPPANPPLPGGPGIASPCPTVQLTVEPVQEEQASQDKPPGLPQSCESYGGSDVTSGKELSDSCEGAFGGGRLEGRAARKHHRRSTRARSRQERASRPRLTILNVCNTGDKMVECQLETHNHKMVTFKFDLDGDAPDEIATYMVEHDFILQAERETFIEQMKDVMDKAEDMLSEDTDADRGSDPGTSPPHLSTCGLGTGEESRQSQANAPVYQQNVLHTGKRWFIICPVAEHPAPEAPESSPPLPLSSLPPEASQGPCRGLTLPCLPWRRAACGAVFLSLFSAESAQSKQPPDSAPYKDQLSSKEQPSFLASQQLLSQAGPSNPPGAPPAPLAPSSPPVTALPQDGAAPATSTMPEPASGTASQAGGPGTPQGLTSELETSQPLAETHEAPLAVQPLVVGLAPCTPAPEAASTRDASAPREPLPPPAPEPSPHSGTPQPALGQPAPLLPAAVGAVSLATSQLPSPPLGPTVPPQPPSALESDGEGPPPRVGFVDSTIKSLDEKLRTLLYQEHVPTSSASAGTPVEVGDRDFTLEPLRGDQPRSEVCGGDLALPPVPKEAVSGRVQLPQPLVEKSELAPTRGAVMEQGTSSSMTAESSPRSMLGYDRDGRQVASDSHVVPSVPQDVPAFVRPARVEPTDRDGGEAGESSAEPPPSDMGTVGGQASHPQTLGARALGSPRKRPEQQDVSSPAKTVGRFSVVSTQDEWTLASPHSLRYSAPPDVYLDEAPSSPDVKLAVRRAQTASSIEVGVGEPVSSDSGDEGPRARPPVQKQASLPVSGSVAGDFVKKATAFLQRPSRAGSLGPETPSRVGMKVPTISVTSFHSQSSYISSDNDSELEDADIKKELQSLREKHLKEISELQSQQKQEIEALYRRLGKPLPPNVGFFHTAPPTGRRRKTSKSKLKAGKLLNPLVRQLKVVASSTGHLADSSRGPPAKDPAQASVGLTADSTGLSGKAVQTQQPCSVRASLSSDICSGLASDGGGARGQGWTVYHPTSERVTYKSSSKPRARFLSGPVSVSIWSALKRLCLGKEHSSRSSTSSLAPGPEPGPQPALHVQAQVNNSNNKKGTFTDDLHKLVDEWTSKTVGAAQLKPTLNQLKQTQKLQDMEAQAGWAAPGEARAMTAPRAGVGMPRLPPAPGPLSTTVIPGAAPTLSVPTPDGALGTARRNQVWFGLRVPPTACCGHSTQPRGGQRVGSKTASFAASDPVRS

ADRBK2 (human) = ADRBK2 (human) (UniProt P35626)
NEK2 (human) = NEK2 (human) (UniProt P51955)
MAPK9 (human) = MAPK9 (human) (UniProt P45984)
NEK7 (human) = NEK7 (human) (UniProt Q8TDX7)
Chain of NEK7 (human) (Q8TDX7 whole entry, looked up): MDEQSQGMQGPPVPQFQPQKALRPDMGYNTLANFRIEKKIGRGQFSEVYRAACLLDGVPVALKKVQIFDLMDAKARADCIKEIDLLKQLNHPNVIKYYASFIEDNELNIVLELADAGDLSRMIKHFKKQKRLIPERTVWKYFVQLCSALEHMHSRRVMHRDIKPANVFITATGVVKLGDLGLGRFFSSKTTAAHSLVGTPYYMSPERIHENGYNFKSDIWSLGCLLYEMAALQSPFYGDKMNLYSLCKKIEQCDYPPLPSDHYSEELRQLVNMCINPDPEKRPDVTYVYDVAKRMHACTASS

[1] = tested on: MAP2K6 (human), P52564 [S207E/T211E]
Chain of MAP2K6 (human), P52564 [S207E/T211E] (P52564 whole entry S207E/T211E, looked up): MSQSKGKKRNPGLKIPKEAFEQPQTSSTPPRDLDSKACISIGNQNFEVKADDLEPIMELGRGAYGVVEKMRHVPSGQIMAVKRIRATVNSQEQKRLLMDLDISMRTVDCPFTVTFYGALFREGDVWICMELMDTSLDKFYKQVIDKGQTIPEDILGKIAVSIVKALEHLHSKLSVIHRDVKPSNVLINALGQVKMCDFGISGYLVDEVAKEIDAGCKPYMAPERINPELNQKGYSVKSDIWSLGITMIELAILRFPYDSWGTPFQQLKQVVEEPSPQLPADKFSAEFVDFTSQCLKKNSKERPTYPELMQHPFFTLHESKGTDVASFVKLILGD

LTK (human) = LTK (human) (UniProt P29376)
PRKCI (human) = PRKCI (human) (UniProt P41743)
CLK1 (human) = CLK1 (human) (UniProt P49759)
CDK6 CCND1 (human) = CDK6 CCND1 (human) (UniProt Q00534+P24385)
TEC (human) = TEC (human) (UniProt P42680)
PIM1 (human) = PIM1 (human) (UniProt P11309)
[2] = tested on: FLT4 (human), P35916 [Q890H]
RAF1 (human) = RAF1 (human) (UniProt P04049)
MAP3K5 (human) = MAP3K5 (human) (UniProt Q99683)
PDPK1 (human) = PDPK1 (human) (UniProt O15530)
EPHA4 (human) = EPHA4 (human) (UniProt P54764)
MELK (human) = MELK (human) (UniProt Q14680)
Chain of MELK (human) (Q14680 whole entry, looked up): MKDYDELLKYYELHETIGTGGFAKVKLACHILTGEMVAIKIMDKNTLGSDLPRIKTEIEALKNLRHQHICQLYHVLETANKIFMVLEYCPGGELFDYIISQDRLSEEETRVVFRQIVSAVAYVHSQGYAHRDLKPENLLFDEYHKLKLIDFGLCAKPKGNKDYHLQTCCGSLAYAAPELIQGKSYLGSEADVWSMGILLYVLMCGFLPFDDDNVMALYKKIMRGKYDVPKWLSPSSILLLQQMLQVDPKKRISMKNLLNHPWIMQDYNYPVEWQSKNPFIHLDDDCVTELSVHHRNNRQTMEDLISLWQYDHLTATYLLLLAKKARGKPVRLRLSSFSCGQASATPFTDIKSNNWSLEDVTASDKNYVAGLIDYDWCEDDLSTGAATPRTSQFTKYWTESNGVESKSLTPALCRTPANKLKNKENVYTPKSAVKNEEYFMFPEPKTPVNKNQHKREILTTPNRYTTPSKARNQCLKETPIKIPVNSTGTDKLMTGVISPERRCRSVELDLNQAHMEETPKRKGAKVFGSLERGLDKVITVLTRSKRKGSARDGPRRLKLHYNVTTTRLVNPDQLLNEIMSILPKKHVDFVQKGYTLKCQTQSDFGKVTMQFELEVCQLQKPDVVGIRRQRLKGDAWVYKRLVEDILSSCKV

ROCK2 (human) = ROCK2 (human) (UniProt O75116)
FYN (human) = FYN (human) (UniProt P06241)
CHEK2 (human) = CHEK2 (human) (UniProt O96017)
MINK1 (human) = MINK1 (human) (UniProt Q8N4C8)
CDK2 CCNE1 (human) = CDK2 CCNE1 (human) (UniProt P24941+P24864)
RPS6KB2 (human) = RPS6KB2 (human) (UniProt Q9UBS0)
MAPK11 (human) = MAPK11 (human) (UniProt Q15759)
Chain of MAPK11 (human) (Q15759 whole entry, looked up): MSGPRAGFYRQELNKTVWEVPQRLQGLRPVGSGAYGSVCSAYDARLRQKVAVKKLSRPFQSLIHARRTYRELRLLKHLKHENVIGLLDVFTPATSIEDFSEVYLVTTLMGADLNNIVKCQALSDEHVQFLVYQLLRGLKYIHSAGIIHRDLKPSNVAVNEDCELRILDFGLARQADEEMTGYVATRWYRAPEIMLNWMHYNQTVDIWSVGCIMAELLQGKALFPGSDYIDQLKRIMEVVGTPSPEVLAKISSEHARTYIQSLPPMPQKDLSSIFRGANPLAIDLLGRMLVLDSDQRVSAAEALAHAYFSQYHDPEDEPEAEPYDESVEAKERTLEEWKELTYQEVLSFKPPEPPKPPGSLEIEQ

STK39 (human) = STK39 (human) (UniProt Q9UEW8)
MARK3 (human) = MARK3 (human) (UniProt P27448)
ADRBK1 (human) = ADRBK1 (human) (UniProt P25098)
PTK2B (human) = PTK2B (human) (UniProt Q14289)
CDK1 CCNA2 (human) = CDK1 CCNA2 (human) (UniProt P06493+P20248)
PNCK (human) = PNCK (human) (UniProt Q6P2M8)
Chain of PNCK (human) (Q6P2M8 whole entry, looked up): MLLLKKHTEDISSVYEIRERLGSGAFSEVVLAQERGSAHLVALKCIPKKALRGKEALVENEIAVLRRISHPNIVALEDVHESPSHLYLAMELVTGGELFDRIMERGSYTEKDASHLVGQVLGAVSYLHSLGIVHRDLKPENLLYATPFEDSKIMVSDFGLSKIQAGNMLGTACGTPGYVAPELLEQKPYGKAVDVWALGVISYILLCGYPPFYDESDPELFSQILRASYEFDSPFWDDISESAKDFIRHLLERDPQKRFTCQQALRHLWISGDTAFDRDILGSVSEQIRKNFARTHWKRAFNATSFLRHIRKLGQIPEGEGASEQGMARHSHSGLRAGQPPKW

LRRK2 (human) = LRRK2 (human) (UniProt Q5S007)
MARK4 (human) = MARK4 (human) (UniProt Q96L34)
Chain of MARK4 (human) (Q96L34 whole entry, looked up): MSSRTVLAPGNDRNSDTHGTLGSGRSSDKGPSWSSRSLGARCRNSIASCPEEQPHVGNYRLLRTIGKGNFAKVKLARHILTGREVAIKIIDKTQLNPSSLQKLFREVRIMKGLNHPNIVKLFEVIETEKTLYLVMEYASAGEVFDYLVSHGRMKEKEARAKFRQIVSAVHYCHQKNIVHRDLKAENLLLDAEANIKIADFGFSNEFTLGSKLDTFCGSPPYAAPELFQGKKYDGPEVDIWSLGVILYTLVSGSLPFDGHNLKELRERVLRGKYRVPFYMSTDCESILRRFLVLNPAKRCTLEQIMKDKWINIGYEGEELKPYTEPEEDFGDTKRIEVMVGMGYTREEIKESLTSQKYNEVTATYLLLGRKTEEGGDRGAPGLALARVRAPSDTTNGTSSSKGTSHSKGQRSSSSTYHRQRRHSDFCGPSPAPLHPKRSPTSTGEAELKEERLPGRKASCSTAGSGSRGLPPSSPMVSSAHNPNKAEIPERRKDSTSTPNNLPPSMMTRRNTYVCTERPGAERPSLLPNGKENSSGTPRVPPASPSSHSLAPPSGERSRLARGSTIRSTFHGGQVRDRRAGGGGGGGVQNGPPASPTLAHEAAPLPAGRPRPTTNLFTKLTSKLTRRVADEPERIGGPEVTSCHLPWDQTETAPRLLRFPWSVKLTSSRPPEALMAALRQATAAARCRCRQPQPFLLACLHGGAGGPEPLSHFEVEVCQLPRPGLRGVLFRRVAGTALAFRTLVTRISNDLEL

TBK1 (human) = TBK1 (human) (UniProt Q9UHD2)

## CN(C)c1ccc(/C=C2\C(=O)Nc3ccccc32)cc1
ROS1 (human)
  residual activity: 94.9%
CSNK1G1 (human)
  residual activity: 93%
GRK7 (human)
  residual activity: 100%
BRSK2 (human)
  residual activity: 93%
CDK5 CDK5R1 p25 (human)
  residual activity: 102%
TYRO3 (human)
  residual activity: 92.7%
EPHA1 (human)
  residual activity: 93.7%
PTK2 (human)
  residual activity: 104%
WNK2 (human)
  residual activity: 104%
ADRBK2 (human)
  residual activity: 98.9%
NEK2 (human)
  residual activity: 98.4%
MAPK9 (human)
  residual activity: 103%
NEK7 (human)
  residual activity: 102%
[1]
  residual activity: 94.7%
LTK (human)
  residual activity: 96.8%
PRKCI (human)
  residual activity: 101%
CLK1 (human)
  residual activity: 103%
CDK6 CCND1 (human)
  residual activity: 101%
TEC (human)
  residual activity: 103%
PIM1 (human)
  residual activity: 101%
[2]
  residual activity: 98.8%
RAF1 (human)
  residual activity: 101%
MAP3K5 (human)
  residual activity: 99.4%
PDPK1 (human)
  residual activity: 82.3%
EPHA4 (human)
  residual activity: 95.2%
MELK (human)
  residual activity: 89.3%
ROCK2 (human)
  residual activity: 95.2%
FYN (human)
  residual activity: 104%
CHEK2 (human)
  residual activity: 91.6%
MINK1 (human)
  residual activity: 79%
CDK2 CCNE1 (human)
  residual activity: 97.1%
RPS6KB2 (human)
  residual activity: 101%
MAPK11 (human)
  residual activity: 93.5%
STK39 (human)
  residual activity: 96.6%
MARK3 (human)
  residual activity: 101%
ADRBK1 (human)
  residual activity: 101%
PTK2B (human)
  residual activity: 94.5%
CDK1 CCNA2 (human)
  residual activity: 96.9%
PNCK (human)
  residual activity: 102%
LRRK2 (human)
  residual activity: 89.8%
MARK4 (human)
  residual activity: 97%
TBK1 (human)
  residual activity: 98.4%

## COc1ccc(Cl)cc1NC(=O)Nc1cc(C)nc2ccccc12
ROS1 (human)
  residual activity: 92.5%
CSNK1G1 (human)
  residual activity: 97.9%
GRK7 (human)
  residual activity: 101%
BRSK2 (human)
  residual activity: 95.2%
CDK5 CDK5R1 p25 (human)
  residual activity: 105%
TYRO3 (human)
  residual activity: 98.9%
EPHA1 (human)
  residual activity: 88.6%
PTK2 (human)
  residual activity: 97.3%
WNK2 (human)
  residual activity: 104%
ADRBK2 (human)
  residual activity: 103%
NEK2 (human)
  residual activity: 106%
MAPK9 (human)
  residual activity: 105%
NEK7 (human)
  residual activity: 103%
[1]
  residual activity: 89.9%
LTK (human)
  residual activity: 87.3%
PRKCI (human)
  residual activity: 99.4%
CLK1 (human)
  residual activity: 97.6%
CDK6 CCND1 (human)
  residual activity: 89.8%
TEC (human)
  residual activity: 110%
PIM1 (human)
  residual activity: 98.1%
[2]
  residual activity: 100%
RAF1 (human)
  residual activity: 94.8%
MAP3K5 (human)
  residual activity: 101%
PDPK1 (human)
  residual activity: 83.9%
EPHA4 (human)
  residual activity: 104%
MELK (human)
  residual activity: 106%
ROCK2 (human)
  residual activity: 96.7%
FYN (human)
  residual activity: 100%
CHEK2 (human)
  residual activity: 101%
MINK1 (human)
  residual activity: 88.7%
CDK2 CCNE1 (human)
  residual activity: 94.6%
RPS6KB2 (human)
  residual activity: 106%
MAPK11 (human)
  residual activity: 92%
STK39 (human)
  residual activity: 98.5%
MARK3 (human)
  residual activity: 126%
ADRBK1 (human)
  residual activity: 100%
PTK2B (human)
  residual activity: 88.9%
CDK1 CCNA2 (human)
  residual activity: 104%
PNCK (human)
  residual activity: 98.7%
LRRK2 (human)
  residual activity: 98%
MARK4 (human)
  residual activity: 79.7%
TBK1 (human)
  residual activity: 100%
